In the assay the test system is HCV type 1a (pCV-H77C) in Huh-7 cells. The assay is described as follows: Cell surface expression of HCV envelope proteins E1 and E2 by flow cytometry (FACS) in transfected Huh-7 cells. The class given is cell-based, hepatitis C virus. As to conditions: Huh-7 cells transfected with type 1a pCVH77C and AR3126, interferon treatment. The procedure:
Transfected or supernatant treated Huh-7 cells were stained with anti-E1 or anti-E2 antibodies using procedures similar to those described previously by Koka et al. A goat anti-mouse IgG1 antibody conjugated to PE was used for labeling of the primary antibody. Flow cytometric analyses were performed on a Becton-Dickinson FACSCAN.
Huh-7 cells (1×10^7) were transfected/co-transfected with plasmid DNA at 60–70% confluency in T-75 tissue culture flasks. In some experiments transfection was carried out in 6-well plates (3×10^6 cells per well and 2 μg of each plasmid). Ten μgs of each plasmid was added to 0.45 ml of serum-free RPMI and mixed with 180 μl of superfect transfection reagent from Quiagen. The mixture was incubated at room temperature for 10 min after which 3 ml of RPMI containing 10% fetal bovine serum was then added. The mixture was then layered on Huh-7 cells and incubated at 37° C. for 6 h. The cell culture medium was changed regularly until the cells were harvested for labeling with appropriate antibodies or RNA isolation.
Viral protein synthesis was monitored by assaying cell surface expression of viral envelope proteins E1 and E2 by fluorescent activated cell sorting (FACS). Cell surface expression of HCV E1 and E2 was determined by flow cytometry following a procedure as previously described. […]
Background: A flow cytometer gives signals particle by particle.

We go through one substance from patent US7183095B2, “Cell culture system for synthesis of infectious hepatitis C virus” (priority 2001, dated 2007).

On to gamma: interferon gamma, for which the E1/E2 expression entry is recorded as “inhibited E1/E2 expression only marginally”.
